# Measured values reported in patent US10532018B2, “Method of whitening skin using tranexamic acid-peptide having skin whitening activity” (ANPEP INC., priority 2016, dated 2020).
# Test system: mouse melanocytes
# Assay: Whitening effect: melanin production in α-MSH-treated melanocytes by visual inspection
# Format: cell-based
# Details: images of melanocytes, similar concentrations, 3 days
# Description: According to a preferred embodiment of the present invention, the peptides of the present invention […] the melanin production in a concentration-dependent manner. […] Additionally, when cells were treated with 4 kinds of the tranexamic acid-peptides; the peptides, to which tranexamic acid was not bound; Arbutin; and AA2G at various concentrations (1μ, 10μ, 100μ, and 250μ), cultured for 3 days, and the absorbance of the cultures were measured at 490 nm and analyzed.
# Tranexamic acid-peptides were treated according to concentration and their inhibitory effect against melanin production was measured. The mouse melanocytes were cultured in Dulbecco's modified Eagle's media (DMEM, Sigma) containing 10% fetal bovine serum ([…], Sigma) under 37° C. CO2 conditions.
# The cells were cultured in a 24-well plate at a concentration of 1×10^5 cells/well, and the attachment of cells was confirmed. Then, the control group was not treated with anything but only a solvent was added thereto, whereas a-MSH ([…]) was added to the positive control group. The remaining dishes were treated with α-MSH (20 μg/mL), 4 kinds of tranexamic acid-peptides, and the control group with Arbutin and AA2G, to a concentration of 1 μg/mL, 10 μg/mL, 100 μg/mL, and 250μ), respectively. Test materials were added to each dish and cultured for 3 days. […]
row,cell number compared to α-MSH treatment,Compound
1,rapidly decreased,OC[C@H]1O[C@@H](Oc2ccc(O)cc2)[C@H](O)[C@@H](O)[C@@H]1O [Arbutin]

# Test system: skin pigmentation (melanin index)
# Assay: Clinical test of creams: skin pigmentation by Mexameter
# Format: in vivo, human
# Details: 54 women, creams with 1% tranexamic acid-dipeptide or tranexamic acid, 2 times a day
# Description: In particular, a cream containing tranexamic acid was used as the positive control group and the standard base cream was used as the negative control group.
# The face of each subject was divided into two parts vertically and the two kinds of creams prepared above were applied to each face. The subjects were required to continuously use the creams in the morning and evening, 2 times a day for 8 weeks after washing the face.
# For the objective evaluation of changes in skin pigmentation before and after the use of the creams, the changes in pigmentation were measured using the Mexameter (CK, Germany) before the use of the creams, 2 weeks, 4 weeks, 6 weeks, and 8 weeks after the use of the creams.
# As a result of the above experiment, the tranexamic acid-dipeptide with a greater effect between the two kinds of tranexamic acid-dipeptides, was selected and, as an attempt to reduce the content in the cream, a cream containing 0.5% tranexamic acid-dipeptide was prepared. Ten women subjects were collected and the 8-week clinical experiment was performed in the same manner as described above.
row,Compound,decrease of the melanin index after 8 weeks [%]
1,"NC[C@H]1CC[C@H](C(=O)O)CC1 [TXA, tranexamic acid]",11.4

# Same assay, conditions: ten women, cream with 0.5% tranexamic acid-dipeptide or tranexamic acid, 2 times a day
row,Compound,decrease of the melanin index after 8 weeks [%]
1,"NC[C@H]1CC[C@H](C(=O)O)CC1 [TXA, tranexamic acid]",10.2

# Test system: B16F1 cells
# Assay: Screening of tranexamic acid-peptides: intracellular melanin production in α-MSH-treated melanocytes
# Format: cell-based, mouse
# Details: α-MSH 20 μg/mL, 3 days, intracellular melanin at 490 nm; Control (No Treatment) = 100; test concentration not stated (1-250 μg/mL tested)
# Description: B16F1 cells, which are mouse melanocytes, were cultured in Dulbecco's modified Eagle's media (DMEM, Sigma), to which 10% fetal bovine serum (FBS, Sigma) was added, under 37° C. CO2 conditions. The cells were cultured in a 24-well plate at a concentration of 1×10^5 cells/well, and the attachment of cells was confirmed. Then, the control group was not treated with anything but only a solvent was added thereto, whereas a-MSH (20 μg/mL) was added to the positive control group. The remaining dishes were treated with α-MSH (20 μg/mL), 40 kinds of tranexamic acid-peptides, and the control group with Arbutin and AA2G, to a concentration of 1 μg/mL, 10 μg/mL, 100 μg/mL, and 250 μg/mL, respectively. Test materials were added to each dish and cultured for 3 days. After 3 days, the culture was removed by centrifugation, and the cells were lysed and intracellular melanin was collected, and observed at 490 nm to measure the amount of intracellular melanin production.
# 40 kinds of tranexamic acid-peptides were treated according to concentration, and their inhibitory effect against melanin production was measured.
row,Compound,α-MSH Inhibitory Ability (%)
1,Tranexamil-SA [Dipeptide-13 SA],81
2,Tranexamil-ES [Dipeptide-5 ES],80
3,Tranexamil-ET [Dipeptide-38 ET],52
4,Tranexamil-WA [Dipeptide-14 WA],65
5,Tranexamil-SS [Dipeptide-19 SS],80
6,Tranexamil-EC [Dipeptide-20 EC],61
7,Tranexamil-GP [Dipeptide-4 GP],80
8,Tranexamil-HA [Dipeptide-28 HA],87
9,Tranexamil-SV [Dipeptide-37 SV],64
10,Tranexamil-VV [Dipeptide-24 VV],72
11,Tranexamil-AT [Dipeptide-2 AT],88
12,Tranexamil-PQ [Dipeptide-33 PQ],71
13,Tranexamil-PP [Dipeptide-35 PP],85
14,Tranexamil-WE [Dipeptide-15 WE],78
15,Tranexamil-VP [Dipeptide-25 VP],69
16,Tranexamil-RP [Dipeptide-32 RP],87
17,Tranexamil-NT [Dipeptide-40 NT],84
18,Tranexamil-AH [Dipeptide-11 AH],82
19,Tranexamil-TS [Dipeptide-18 TS],75

row,Compound,α-MSH Inhibitory Ability (%)
1,Tranexamil-TA [Dipeptide-21 TA],76
2,Tranexamil-QG [Dipeptide-34 QG],85
3,Tranexamil-NA [Dipeptide-17 NA],79
4,Tranexamil-AR [Dipeptide-31 AR],93
5,Tranexamil-CC [Dipeptide-12 CC],83
6,Tranexamil-KV [Dipeptide-30 KV],83
7,Tranexamil-AA [Dipeptide-26 AA],92
8,Tranexamil-MA [Dipeptide-10 MA],56
9,Tranexamil-KD [Dipeptide-16 KD],81
10,"NC[C@H]1CC[C@H](C(=O)O)CC1 [TXA, tranexamic acid]",45
11,Tranexamil-CG [Dipeptide-39 CG],92
12,Tranexamil-GK [Dipeptide-29 GK],96
13,Tranexamil-PF [Dipeptide-22 PF],89
14,Tranexamil-VR [Dipeptide-36 VR],70
15,Tranexamil-GH [Dipeptide-9 GH],70
16,Tranexamil-MY [Dipeptide-8 MY],78
17,Tranexamil-AS [Dipeptide-1 AS],98
18,Tranexamil-KK [Dipeptide-6 KK],83
